From patent US6974814B2, “Neuropharmacological treatment of sleep-related breathing disorders” (The Board of Trustees of the University of Illinois, priority 1999, dated 2005)

Legend:
[1] = tested on: sleep apnea; details: cited from earlier work; for effect in individuals with central apnea: central apneas
[2] = tested on: intertrigeminal region of the brainstem; details: administration into the brainstem; cited from earlier work
[3] = tested on: apnea; details: animal model of sleep apnea; cited from earlier work
[4] = tested on: spontaneous apneas
Description: Adult, male Sprague-Dawley rats (Sasco-King, Wilmington, Mass.; usually 8 per test group; 300 g) are maintained on a 12-hour light (08:00–20:00 hour)/12-hour dark (20:00–08:00 hour) cycle for one week, housed in individual cages and given ad libitum access to food and water. Following the one week of acclimatization, animals are subjected to the following surgical procedures.
Acclimatized animals are anesthetized for the implantation of cortical electrodes for electroencephalogram (EEG) recording and neck muscle electrodes for electromyogram (EMG) recording using a mixture of ketamine (Vedco, Inc., St. Joseph, Mo.; 100 mg/ml) and acetylpromazine (Vedco, Inc., St. Joseph, Mo.; 10 mg/ml; 4:1, volume/volume) at a volume of 1 ml/kg body weight. The surface of the skull is exposed surgically and cleaned with a 20% solution of hydrogen peroxide followed by a solution of 95% isopropyl alcohol. Next, a dental preparation of sodium fluoride (Flura-GEL®, Saslow Dental, Mt. Prospect, Ill.) is applied to harden the skull above the parietal cortex and allowed to remain in place for 5 minutes. The fluoride mixture is then removed from the skull above the parietal cortex. The EEG electrodes consisting of four stainless steel machine screws, having leads attached thereto, are threaded into the skull to rest on the dura over the parietal cortex. A thin layer of Justi® resin cement (Saslow Dental, Mt. Prospect, Ill.) is applied to cover the screw heads (of screws implanted in the skull) and surrounding skull to further promote the adhesion of the implant. EMG electrodes consisting of two ball-shaped wires are inserted into the bilateral-neck musculature. All leads (i.e., EEG and EMG leads) are soldered to a miniature connector (39F1401, Newark Electronics, Schaumburg, Ill.). Lastly, the entire assembly is fixed to the skull with dental cement.
After surgery, all animals are allowed to recover for one week before being subjected to another surgery that involved implantation of a radiotelemetry transmitter (TA11-PXT, Data Sciences International, St. Paul, Minn.) for monitoring blood pressure (BP) and heart period (HP), estimated as pulse interval. After the animals are anesthetized (as described above), the hair from the subxiphoid space to the pelvis is removed. The entire area is scrubbed with iodine and rinsed with alcohol and saline. A 4–6 cm midline abdominal incision is made to allow good visualization of the area from the bifurcation of the aorta to the renal arteries. A retractor is used to expose the contents of the abdomen and the intestine is held back using saline moistened gauze sponges. […]
Physiological parameters (see below) from each animal are recorded on numerous occasions in random order, with recordings for an individual animal separated by at least 3 days.

[5] = individuals with obstructive sleep apnea

In the case of medroxyprogesterone, the “effect in individuals with obstructive sleep apnea (OSAS)” value (“effect in individuals … (OSAS)” for short) [1] is listed as “no consistent benefit”.
In the case of `N[C@@H](CCC(=O)O)C(=O)O` [glutamate], the “effect on breathing (reflex apneas)” value [2] is given as “provoked reflex apneas”.
For `Nc1ncnc2c1ncn2[C@@H]1O[C@H](CO)[C@@H](O)[C@H]1O` [adenosine], the effect on apnea [3] is given as “somewhat effective in reducing apnea”.
For `Cn1c(=O)c2[nH]cnc2n(C)c1=O` [theophylline], the “effect in individuals with central apnea” value [1] is given as “may benefit” and the “effect in individuals … (OSAS)” value [1] is given as “of no use”.
In the case of `C=CCN1CC[C@]23c4c5ccc(O)c4O[C@H]2C(=O)CC[C@@]3(O)[C@H]1C5` [naloxone], the “effect in individuals … (OSAS)” value [1] is given as “only slightly helpful”.
For `CNCCCC1c2ccccc2C=Cc2ccccc21` [Protriptyline], the “effect in individuals … (OSAS)” value [1] is given as “variable results” and the side effects ([1]; several small trials in OSAS) is given as “frequent and significant side effects”.
In the case of `CCN1CC(CCN2CCOCC2)C(c2ccccc2)(c2ccccc2)C1=O` (stereo not shown) [doxapram], the “average arterial oxygen saturation” value [1, 5] is listed as “did not alter” and the length of apneas [1, 5] is listed as “decrease the length of apneas”.
For `CC(=O)Nc1nnc(S(N)(=O)=O)s1` [acetazolamide], the “effect in individuals with central apnea” value [1] is listed as “variable improvement” and the “effect in individuals … (OSAS)” value [1] is listed as “increase in obstructive apneas”.
In the case of `Nc1nc2ccc(OC(F)(F)F)cc2s1` [riluzole], the “average decrease in apnea expression (apneas per hour of NREM sleep)” value ([4]; NREM sleep, 4.0 mg/kg intraperitoneal 15 min before 6 h recording, vs saline, p=0.05) was 31%, the “animals with a decrease in apnea expression” value ([4]; NREM sleep, 4.0 mg/kg intraperitoneal, vs saline) was 5 of 7 and the “average decrease in apnea expression (apneas per hour of REM sleep)” value ([4]; REM sleep, 4.0 mg/kg intraperitoneal 15 min before 6 h recording, vs saline, p=0.11) was 27%. For the same molecule, the “overall effect on production of spontaneous sleep apneas” value ([4]; both NREM and REM sleep) was “physiologically significant decrease”.
